The values that follow come from publication PMC11855866 (International Journal of Molecular Sciences, 2025).

≈ marks a conversion by molar mass, not a printed value. Like-named read-outs stand apart in the source and are kept apart here.

The IC50 is the point on the concentration scale where inhibition reaches its midpoint. By viability is commonly meant a read-out of living cells in per cent, often relative to untreated cells.

A short description of data set [1]: Analysis of drug solubility (Cobs by HPLC). Format: physicochemical. The method, then: The drug content in the samples was determined using a previously described HPLC method. The analysis was performed on an Ultimate 3000 HPLC system (Dionex Co., Germering, Germany), equipped with a UV–Vis detector and a TSKgel ODS-100V column (particle size: 5 µm; dimensions: 4.6 mm i.d. × 15 cm; Tosoh Co., Tokyo, Japan). The mobile phase consisted of MeCN and 20 mM KH2PO4 buffer (pH 3.0) in an appropriate ratio. The flow rate was maintained at 1.0 mL/min, with the column temperature set to 30 °C. All compounds were detected at 228 nm.
Some samples included 0.05% (v/v) Tween-80. For experiments involving BSA, a separate solution was prepared by dissolving 4.5 mg/mL of BSA (cat. #422381B, VWR) in the same PBS (pH 7.4), with or without 0.05% (v/v) Tween-80. All samples were incubated at 37 °C with shaking for 24 h. After incubation, the samples were either centrifuged at 13,500 rpm (RCF = 12,225 g) for 15 min using a Micro Star 12 microcentrifuge (VWR), and 150 µL of the supernatant was collected for HPLC analysis, or filtered using 0.22 µm PVDF syringe filters (13 mm i.d., cat. #514-1251, VWR) or AcroPrep™ Advance 96-well filter plates (Pall Corporation, Dreieich, Germany) with various molecular weight cut-offs.

For data set [2], the system named is HSA. The arrangement: method as in Figure S2 [39–71]. Particulars: ref Figure S2 [39–71]; cited from earlier work.
Data set [3] relates to MCF-7 cells. Put plainly: MTT cytotoxicity / synergy assay, 72 h, MCF-7. Format: cell-based, human. Particulars: 72 h. The method, then: (§1) Stock solutions of the tested compounds were first prepared in DMSO at 200-fold the intended final concentration. […] The cells were treated for 72 h under the same conditions.
(§2) Following treatment, 25 μL of MTT solution was added to each well, and the plates were incubated for 2 h at 37 °C. […] IC₅₀ values, indicating the concentration required to reduce cell viability by 50% compared to untreated controls (set as 100% viability), were calculated using GraphPad Prism 9 software (GraphPad Software, San Diego, CA, USA). All data from this preliminary cytotoxic assay were analyzed by ANOVA followed by Tukey’s post hoc test for multiple comparisons, with significance set at p < 0.05. A similar statistical approach was used for the rest of the experimental work presented in this study.

Data set [4] in a line: MTT cytotoxicity / synergy assay, 72 h, MCF-7. The class given is cell-based, human. Particulars: human, MCF-7 cells. The method, then: as §1, §2
The conditions of data set [5]: cited from earlier work.

Take `CCC1=C(C)CN(C(=O)NCCc2ccc(S(=O)(=O)NC(=O)N[C@H]3CC[C@H](C)CC3)cc2)C1=O` [GLIM, Glimepiride]: in data set [1] (GLIM only in PBS pH 7.4, 37 °C, 24 h, centrifugation), the “concentration up to which Cobs matches the expected concentration” value is “up to 100 µM”. The “observed concentration (Cobs)” value in data set [1] (GLIM only, 0.22 µm syringe filters, all tested samples) is 8.6 to 16.6 µM. Moreover, the solubility kinetic at 24 h in data set [1] (PBS, pH 7.4, aqueous buffer, read-out: observed concentration (Cobs) above the threshold) is around 5 µM (≈ 2.45 µg/mL). Also, in data set [2], the “nKa (global affinity constant, HSA)” value was 910000 M⁻¹. Further, in data set [3] (with vs. without 0.05% Tween-80), the “decrease in cell viability caused by 0.05% Tween-80” value came out at 24.6%. Besides, the IC50 in data set [3] (Homo sapiens, MCF7, 72 h, MTT, n.d. = IC50 not achieved within concentrations tested, read-out: IC50 Value in Specific Cell Line, MCF-7) worked out at 175 µM. In addition, the viability at 72 h amounted to 71.2% in data set [4] (0.05% Tween-80, read-out: MCF-7 viability with 0.05% Tween-80) and 95.9% in data set [4] (before addition of 0.05% Tween-80, read-out: MCF-7 viability without Tween-80). Also, the protein-bound in plasma in data set [5] was 99.4%.
